# Assay results published in US9980943B2, “Methods of treating muscular dystrophy” (BOARD OF REGENTS OF THE NEVADA SYSTEM OF HIGHER EDUCATION, …, priority 2013, dated 2018).
# Columns and labels:
# Assay type in all cases: cell-based, mouse
# [1] = system: α7 integrin (LacZ reporter in α7βgal+/− myoblasts); assay: Myoblast α7+/LacZ integrin FDG assay (Burkin assay in myoblasts, 96-well); conditions: 96-well; for Burkin Assay in Myoblasts, signal relative to DMSO: α7+/LacZ myoblasts; for Burkin Assay in Myoblasts, value relative to DMSO: SU9516 analogs, N=3-6
# [2] = system: α7 integrin (LacZ reporter in α7+/LacZ myotubes); assay: Myotube α7 integrin FDG assay (Burkin assay in myotubes, 96-well); conditions: for Burkin Assay in Myotubes, value relative to DMSO: SU9516 analogs, 96-well, N=3-6
# [3] = system: β-galactosidase in CMV-LacZ C2C12 myoblasts; assay: CMV-LacZ secondary screen in C2C12 myoblasts (β-Gal stabilizing assay); conditions: for CMV-LACZ in Myoblasts (β-galactosidase activity relative to DMSO): CMV-LacZ C2C12 myoblasts; for CMV-LACZ in Myoblasts, value relative to DMSO: SU9516 analogs, C2C12 CMV-LacZ, N=2
# Procedure, shortened: (§1)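 β-gal stabilization was measured in C2C12 myoblasts or myotubes stably transfected with a CMV-driven LacZ construct, using the FDG β-gal assay. Compounds were tested in dose-response at 0.5, 1, 5, 10, 20 and 40 μM, with two replicates per point.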
# [4] = system: β-galactosidase in CMV-LacZ C2C12 myotubes; assay: CMV-LacZ secondary screen in C2C12 myotubes (β-Gal stabilizing assay); conditions: for CMV-LACZ in Myotubes, signal relative to DMSO: C2C12 CMV-LacZ myotubes, fold relative to DMSO; for CMV-LACZ in Myotubes, value relative to DMSO: SU9516 analogs, C2C12 CMV-LacZ, N=2
# Procedure, shortened: as §1
smiles,measurement,setting,value
CC(O)CNc1nc2c(c(=O)n(Cc3ccc(Br)cc3)c(=O)n2C)n1C (stereo not drawn) [MLS001212319-01],"Burkin Assay in Myoblasts, signal relative to DMSO",[1]; 0.5 uM,1.05
same,"Burkin Assay in Myoblasts, signal relative to DMSO",[1]; 1 uM,1.026
same,"Burkin Assay in Myoblasts, signal relative to DMSO",[1]; 5 uM,0.9412
same,"Burkin Assay in Myoblasts, signal relative to DMSO",[1]; 10 uM,0.8826
same,"Burkin Assay in Myoblasts, signal relative to DMSO",[1]; 20 uM,0.8529
same,"Burkin Assay in Myoblasts, signal relative to DMSO",[1]; 40 uM,0.782
same,"Burkin Assay in Myotubes, α7 integrin LacZ reporter signal relative to DMSO",[2]; 0.5 uM,1.134
same,"Burkin Assay in Myotubes, α7 integrin LacZ reporter signal relative to DMSO",[2]; 1 uM,1.139
same,"Burkin Assay in Myotubes, α7 integrin LacZ reporter signal relative to DMSO",[2]; 5 uM,0.9476
same,"Burkin Assay in Myotubes, α7 integrin LacZ reporter signal relative to DMSO",[2]; 10 uM,0.9201
same,"Burkin Assay in Myotubes, α7 integrin LacZ reporter signal relative to DMSO",[2]; 20 uM,0.7396
same,"Burkin Assay in Myotubes, α7 integrin LacZ reporter signal relative to DMSO",[2]; 40 uM,0.631
same,CMV-LACZ in Myoblasts (β-galactosidase activity relative to DMSO),[3]; 0.5 uM,0.9129
same,CMV-LACZ in Myoblasts (β-galactosidase activity relative to DMSO),[3]; 1 uM,1.2040
same,CMV-LACZ in Myoblasts (β-galactosidase activity relative to DMSO),[3]; 5 uM,1.0840
same,CMV-LACZ in Myoblasts (β-galactosidase activity relative to DMSO),[3]; 10 uM,0.8600
same,CMV-LACZ in Myoblasts (β-galactosidase activity relative to DMSO),[3]; 20 uM,1.2056
same,CMV-LACZ in Myoblasts (β-galactosidase activity relative to DMSO),[3]; 40 uM,1.0259
same,"CMV-LACZ in Myotubes, signal relative to DMSO",[4]; 0.5 uM,1.1524
same,"CMV-LACZ in Myotubes, signal relative to DMSO",[4]; 1 uM,0.8152
same,"CMV-LACZ in Myotubes, signal relative to DMSO",[4]; 5 uM,0.9525
same,"CMV-LACZ in Myotubes, signal relative to DMSO",[4]; 10 uM,0.9253
same,"CMV-LACZ in Myotubes, signal relative to DMSO",[4]; 20 uM,0.9965
same,"CMV-LACZ in Myotubes, signal relative to DMSO",[4]; 40 uM,1.0706
COc1ccc(OC)c(NC(=O)CN2CCC(NC(=O)c3ccccc3C)CC2)c1 [MLS001212882-01],"Burkin Assay in Myoblasts, signal relative to DMSO",[1]; 0.5 uM,1.0132
same,"Burkin Assay in Myoblasts, signal relative to DMSO",[1]; 1 uM,1.07
same,"Burkin Assay in Myoblasts, signal relative to DMSO",[1]; 5 uM,1.049
same,"Burkin Assay in Myoblasts, signal relative to DMSO",[1]; 10 uM,0.9069
same,"Burkin Assay in Myoblasts, signal relative to DMSO",[1]; 20 uM,1.068
same,"Burkin Assay in Myoblasts, signal relative to DMSO",[1]; 40 uM,1.048
same,"Burkin Assay in Myotubes, α7 integrin LacZ reporter signal relative to DMSO",[2]; 0.5 uM,0.9814
same,"Burkin Assay in Myotubes, α7 integrin LacZ reporter signal relative to DMSO",[2]; 1 uM,1.023
same,"Burkin Assay in Myotubes, α7 integrin LacZ reporter signal relative to DMSO",[2]; 5 uM,0.9072
same,"Burkin Assay in Myotubes, α7 integrin LacZ reporter signal relative to DMSO",[2]; 10 uM,0.8877
same,"Burkin Assay in Myotubes, α7 integrin LacZ reporter signal relative to DMSO",[2]; 20 uM,0.8421
same,"Burkin Assay in Myotubes, α7 integrin LacZ reporter signal relative to DMSO",[2]; 40 uM,0.9107
same,CMV-LACZ in Myoblasts (β-galactosidase activity relative to DMSO),[3]; 0.5 uM,1.1409
same,CMV-LACZ in Myoblasts (β-galactosidase activity relative to DMSO),[3]; 1 uM,1.1291
same,CMV-LACZ in Myoblasts (β-galactosidase activity relative to DMSO),[3]; 5 uM,0.9792
same,CMV-LACZ in Myoblasts (β-galactosidase activity relative to DMSO),[3]; 10 uM,1.0086
same,CMV-LACZ in Myoblasts (β-galactosidase activity relative to DMSO),[3]; 20 uM,1.3230
same,CMV-LACZ in Myoblasts (β-galactosidase activity relative to DMSO),[3]; 40 uM,1.0326
same,"CMV-LACZ in Myotubes, signal relative to DMSO",[4]; 0.5 uM,1.0238
same,"CMV-LACZ in Myotubes, signal relative to DMSO",[4]; 1 uM,0.8705
same,"CMV-LACZ in Myotubes, signal relative to DMSO",[4]; 5 uM,1.0963
same,"CMV-LACZ in Myotubes, signal relative to DMSO",[4]; 10 uM,1.1133
same,"CMV-LACZ in Myotubes, signal relative to DMSO",[4]; 20 uM,1.1471
same,"CMV-LACZ in Myotubes, signal relative to DMSO",[4]; 40 uM,1.3024
C=CCOc1ccc(C(=O)/C=C2/C(=O)Nc3ccccc32)cc1 [MLS001214264-01],"Burkin Assay in Myoblasts, value relative to DMSO",[1]; 0.5 uM,0.8908
same,"Burkin Assay in Myoblasts, value relative to DMSO",[1]; 1 uM,0.8464
same,"Burkin Assay in Myoblasts, value relative to DMSO",[1]; 5 uM,0.743
same,"Burkin Assay in Myoblasts, value relative to DMSO",[1]; 10 uM,0.7009
same,"Burkin Assay in Myoblasts, value relative to DMSO",[1]; 20 uM,0.7879
same,"Burkin Assay in Myoblasts, value relative to DMSO",[1]; 40 uM,0.2394
same,"Burkin Assay in Myotubes, value relative to DMSO",[2]; 0.5 uM,0.9576
same,"Burkin Assay in Myotubes, value relative to DMSO",[2]; 1 uM,0.8975
same,"Burkin Assay in Myotubes, value relative to DMSO",[2]; 5 uM,0.9073
same,"Burkin Assay in Myotubes, value relative to DMSO",[2]; 10 uM,1.058
same,"Burkin Assay in Myotubes, value relative to DMSO",[2]; 20 uM,0.7165
same,"Burkin Assay in Myotubes, value relative to DMSO",[2]; 40 uM,0.7173
same,"CMV-LACZ in Myoblasts, value relative to DMSO",[3]; 0.5 uM,1.0657
same,"CMV-LACZ in Myoblasts, value relative to DMSO",[3]; 1 uM,1.1383
same,"CMV-LACZ in Myoblasts, value relative to DMSO",[3]; 5 uM,1.3058
same,"CMV-LACZ in Myoblasts, value relative to DMSO",[3]; 10 uM,0.9233
same,"CMV-LACZ in Myoblasts, value relative to DMSO",[3]; 20 uM,0.3870
same,"CMV-LACZ in Myoblasts, value relative to DMSO",[3]; 40 uM,0.4856
same,"CMV-LACZ in Myotubes, value relative to DMSO",[4]; 0.5 uM,1.1210
same,"CMV-LACZ in Myotubes, value relative to DMSO",[4]; 1 uM,1.1905
same,"CMV-LACZ in Myotubes, value relative to DMSO",[4]; 5 uM,0.9411
same,"CMV-LACZ in Myotubes, value relative to DMSO",[4]; 10 uM,1.1534
same,"CMV-LACZ in Myotubes, value relative to DMSO",[4]; 20 uM,1.2424
same,"CMV-LACZ in Myotubes, value relative to DMSO",[4]; 40 uM,1.4482
